Laboratory results published in US20140314740A1, “COMPOSITIONS AND METHODS FOR THE PREVENTION OR TREATMENT OF DIABETIC COMPLICATIONS” (The Johns Hopkins University, priority 2011, published 2014).
Entries after “also recorded” stand apart in the source; their conditions may differ.

How the values were obtained:
[1] = biological target: T1, GLUT1 (Homo sapiens, UniProt P11166); conditions: literature statement; cited from earlier work
T1 sequence (P11166 1-492): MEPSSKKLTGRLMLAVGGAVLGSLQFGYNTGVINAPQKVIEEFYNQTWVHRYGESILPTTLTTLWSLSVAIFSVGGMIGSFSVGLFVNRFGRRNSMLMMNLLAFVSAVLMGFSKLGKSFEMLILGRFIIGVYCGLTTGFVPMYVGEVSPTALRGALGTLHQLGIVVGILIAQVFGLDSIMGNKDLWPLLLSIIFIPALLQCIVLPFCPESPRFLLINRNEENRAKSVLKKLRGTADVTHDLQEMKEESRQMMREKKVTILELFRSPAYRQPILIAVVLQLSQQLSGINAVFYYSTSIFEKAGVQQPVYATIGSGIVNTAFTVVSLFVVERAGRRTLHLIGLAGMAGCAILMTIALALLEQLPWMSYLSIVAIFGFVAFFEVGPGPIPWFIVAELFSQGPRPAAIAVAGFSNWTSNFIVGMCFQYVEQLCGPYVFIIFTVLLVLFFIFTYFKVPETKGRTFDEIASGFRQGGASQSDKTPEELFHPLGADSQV

[2] = biological target: T2, GLUT1 (Mus musculus, UniProt P17809); test: Glucose measurements in retina, brain and red blood cells (RBC) of streptozotocin-diabetic mice; type: in vivo, C57BL/6 mice; conditions: for retinal glucose levels: diabetic mice; for retinal glucose (summary statement): systemic treatment of diabetic mice, dose not given
T2 sequence (P17809 1-492): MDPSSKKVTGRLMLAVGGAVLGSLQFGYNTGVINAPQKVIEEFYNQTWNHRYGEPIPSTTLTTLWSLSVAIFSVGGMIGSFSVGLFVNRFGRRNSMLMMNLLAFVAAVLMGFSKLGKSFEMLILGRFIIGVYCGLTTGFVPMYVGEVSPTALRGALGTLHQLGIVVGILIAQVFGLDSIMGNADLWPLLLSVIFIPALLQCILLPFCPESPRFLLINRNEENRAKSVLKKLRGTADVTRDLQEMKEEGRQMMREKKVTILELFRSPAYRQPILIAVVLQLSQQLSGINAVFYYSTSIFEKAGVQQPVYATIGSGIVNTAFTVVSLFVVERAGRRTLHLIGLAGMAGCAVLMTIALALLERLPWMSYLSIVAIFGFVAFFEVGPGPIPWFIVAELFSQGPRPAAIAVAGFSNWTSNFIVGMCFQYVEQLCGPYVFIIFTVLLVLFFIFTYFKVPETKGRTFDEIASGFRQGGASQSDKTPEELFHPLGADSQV

[3] = biological target: T1, GLUT1; conditions: literature statement; cited from earlier work; remark: listed apart in the source
[4] = test system: superoxide radicals; test: Superoxide radical assay (hydroethidine-induced fluorescence) in retinal homogenates of diabetic mice; type: in vivo, C57BL/6 mice; conditions: 1 month of diabetes; 1,9-dideoxyforskolin 0.1 mg/kg daily
Description: Superoxide radicals were measured in retinal homogenates by measuring dihydroethidine-induced fluorescence (Georgiou et al., 2008; Chen et al., 2009). Briefly, 200 μl reaction mixtures of freshly prepared retinal homogenates (20 μg protein) containing 2.5 μM dihydroethidium and 0.05 μg/μl salmon testes DNA were placed in 96-well microplates at 37° C. for 30 min. The fluorescence was measured at an excitation of 480 nm and an emission of 610 nm. Each sample was assayed in triplicate.

[5] = test system: adenylate cyclase; conditions: literature statement; cited from earlier work
[6] = test system: tyrosine kinases; conditions: literature statement; by blocking the ATP binding site; cited from earlier work
[7] = mice diabetic 2 months, 1,9-dideoxyforskolin 1 mg/kg daily IP, 5 hr after last dose, vs untreated diabetics

Structure (SMILES) | GLUT1 glucose transport [1] | retinal glucose levels ([2]; 1,9-dideoxyforskolin 0.1 mg/kg/day IP, 2 or 4 weeks, vs untreated diabetics) | glucose levels in RBCs [2, 7] | glucose levels in brain [2, 7] | glucose levels in retina [2, 7] | retinal glucose (summary statement) [2] | binding to GLUT1 [3] | increase of superoxide radicals (hydroethidine-induced fluorescence) in retinal homogenates [4] | adenylate cyclase stimulation [5] | tyrosine kinase inhibition [6] | retinal glucose levels ([2]; genistein 50 mg/kg/day IP, 4 weeks, vs untreated diabetics)
C=C[C@@]1(C)CC(=O)[C@@H]2[C@@]3(C)CCCC(C)(C)[C@@H]3[C@H](O)[C@H](OC(C)=O)[C@@]2(C)O1 [1,9-dideoxyforskolin] | blocks GLUT1-mediated glucose transport | significantly reduced retinal glucose levels; also recorded: significant reduction in retinal glucose level | significant reduction; also recorded: decreased glucose levels | not in brain; also recorded: did not effect glucose levels | significant reduction; also recorded: decreased glucose levels | equivalent effect to that of forskolin | binds GLUT1 | significantly blocked | lacks adenylate cyclase-stimulating activity |  | 
O=c1c(-c2ccc(O)cc2)coc2cc(O)cc(O)c12 [genistein] | suppresses glucose transport |  |  |  |  | significantly reduced retinal glucose to the same levels seen in non-diabetics | binds to the ATP binding site of GLUT1 |  |  | inhibits tyrosine kinases | significantly reduced retinal glucose levels; also recorded: significant reduction in retinal glucose level
O=c1c(O)c(-c2cc(O)c(O)c(O)c2)oc2cc(O)cc(O)c12 [myricetin] |  |  |  |  |  |  | binds to the ATP binding site of GLUT1 |  |  |  | 
